US5389627A, “Cephem compounds” (priority 1993, dated 1995)
≈ marks a conversion by molar mass, not a printed value. Like-named read-outs stand apart in the source and are kept apart here. One block for each molecule: values may come before it.

Tests used:
S.marcescens ATCC27117 = test: In vitro antibacterial activity, minimum inhibitory concentration; format: cell-based; conditions: Serratia marcescens
From the text: (§1) As reference compounds, Cefotaxime (CTX), Ceftazidime (CAZ) and Cefpirome (CPR) were employed.

P.aeruginosa C2027 = test: as above; format: cell-based; conditions: Pseudomonas aeruginosa
From the text: as §1

S.marcescens C1052 = test: as above; format: cell-based; conditions: Serratia marcescens
From the text: as §1

S.Faecalis ATCC29212 = test: as above; format: cell-based; conditions: Enterococcus faecalis
From the text: as §1

S.typhimurium C4045 = test: as above; format: cell-based; conditions: Salmonella enterica, read-out: Minimum Inhibitory Concentration (MIC)
From the text: as §1

K.pneumoniae C1040 = test: as above; format: cell-based; conditions: Klebsiella pneumoniae
From the text: as §1

S.pyogenes C4003 = test: as above; format: cell-based; conditions: Streptococcus pyogenes
From the text: as §1

P.mirabilis ATCC25933 = test: as above; format: cell-based; conditions: Proteus mirabilis
From the text: as §1

K.oxytoca C4022 = test: as above; format: cell-based; conditions: Klebsiella oxytoca
From the text: as §1

S.aureus Smith = test: as above; format: cell-based; conditions: Staphylococcus aureus, read-out: Minimum Inhibitory Concentration (MIC)
From the text: as §1

P.aeruginosa C4070 = test: as above; format: cell-based; conditions: Pseudomonas aeruginosa
From the text: as §1

P.aeruginosa ATCC10145 = test: as above; format: cell-based; conditions: Pseudomonas aeruginosa
From the text: as §1

P.rettgeri ATCC9919 = test: as above; format: cell-based; conditions: Providencia rettgeri
From the text: as §1

E.cloacae C4009 = test: as above; format: cell-based; conditions: Enterobacter cloacae
From the text: as §1

K.pneumoniae ATCC10031 = test: as above; format: cell-based; conditions: Klebsiella pneumoniae
From the text: as §1

E.coli ATCC10536 = test: as above; format: cell-based; conditions: Escherichia coli
From the text: as §1

P.aeruginosa ATCC27853 = test: as above; format: cell-based; conditions: Pseudomonas aeruginosa
From the text: as §1

E.cloacae C4008 = test: as above; format: cell-based; conditions: Enterobacter cloacae
From the text: as §1

S.pyogenes ATCC 8668 = test: as above; format: cell-based; conditions: Streptococcus pyogenes
From the text: as §1

MRSA C2208 = test: as above; format: cell-based; conditions: Staphylococcus aureus, read-out: Minimum Inhibitory Concentration (MIC)
From the text: as §1

E.coli ATCC25922 = test: as above; format: cell-based; conditions: Escherichia coli
From the text: as §1

S.aureus C4036 = test: as above; format: cell-based; conditions: Staphylococcus aureus
From the text: as §1

S.epidermidis ATCC12228 = test: as above; format: cell-based; conditions: Staphylococcus epidermidis
From the text: as §1

S.aureus ATCC29213 = test: as above; format: cell-based; conditions: Staphylococcus aureus
From the text: as §1

E.coli C4002 = test: as above; format: cell-based; conditions: Escherichia coli
From the text: as §1

[1] = Pharmacokinetics (plasma half-life); format: in vivo; conditions: in vivo, SD Rat, mean value, read-out: Half-Life (T1/2)
Procedure: In order to investigate the pharmacokinetics properties of the compounds according to the present invention, the plasma half-life was determined in accordance with the method described in Antimicrobial Agents and Chemotherapy, 26(2), p.

[2] = S.marcescens ATCC27117, read-out: Minimum Inhibitory Concentration (MIC)
[3] = P.aeruginosa C2027, read-out: Minimum Inhibitory Concentration (MIC)
[4] = S.marcescens C1052, read-out: Minimum Inhibitory Concentration (MIC)
[5] = K.pneumoniae C1040, read-out: Minimum Inhibitory Concentration (MIC)
[6] = S.pyogenes C4003, read-out: Minimum Inhibitory Concentration (MIC)
[7] = P.mirabilis ATCC25933, read-out: Minimum Inhibitory Concentration (MIC)
[8] = K.oxytoca C4022, read-out: Minimum Inhibitory Concentration (MIC)
[9] = P.aeruginosa C4070, read-out: Minimum Inhibitory Concentration (MIC)
[10] = P.aeruginosa ATCC10145, read-out: Minimum Inhibitory Concentration (MIC)
[11] = P.rettgeri ATCC9919, read-out: Minimum Inhibitory Concentration (MIC)
[12] = E.cloacae C4009, read-out: Minimum Inhibitory Concentration (MIC)
[13] = K.pneumoniae ATCC10031, read-out: Minimum Inhibitory Concentration (MIC)
[14] = E.coli ATCC10536, read-out: Minimum Inhibitory Concentration (MIC)
[15] = P.aeruginosa ATCC27853, read-out: Minimum Inhibitory Concentration (MIC)
[16] = E.cloacae C4008, read-out: Minimum Inhibitory Concentration (MIC)
[17] = ATCC8668, S.pyogenes ATCC 8668, read-out: Minimum Inhibitory Concentration (MIC)
[18] = E.coli ATCC25922, read-out: Minimum Inhibitory Concentration (MIC)
[19] = S.aureus C4036, read-out: Minimum Inhibitory Concentration (MIC)
[20] = S.epidermidis ATCC12228, read-out: Minimum Inhibitory Concentration (MIC)
[21] = S.aureus ATCC29213, read-out: Minimum Inhibitory Concentration (MIC)
[22] = E.coli C4002, read-out: Minimum Inhibitory Concentration (MIC)

MIC (S.marcescens ATCC27117; [2]): 0.1 µg/mL (≈ 0.193 µM) | MIC (P.aeruginosa C2027; [3]): 6.25 µg/mL (≈ 12.1 µM) | MIC (S.marcescens C1052; [4]): 0.2 µg/mL (≈ 0.386 µM) | MIC (S.Faecalis ATCC29212): > 100 µg/mL | MIC (S.typhimurium C4045; S.typhimurium C4045): 0.1 µg/mL (≈ 0.193 µM) | MIC (K.pneumoniae C1040; [5]): 1.56 µg/mL (≈ 3.01 µM) | MIC (S.pyogenes C4003; [6]): 0.2 µg/mL (≈ 0.386 µM) | MIC (P.mirabilis ATCC25933; [7]): 0.1 µg/mL (≈ 0.193 µM) | MIC (K.oxytoca C4022; [8]): 1.56 µg/mL (≈ 3.01 µM) | MIC (S.aureus Smith; S.aureus Smith): 6.25 µg/mL (≈ 12.1 µM) | MIC (P.aeruginosa C4070; [9]): 50 µg/mL (≈ 96.6 µM) | MIC (P.aeruginosa ATCC10145; [10]): 12.5 µg/mL (≈ 24.2 µM) | MIC (P.rettgeri ATCC9919; [11]): 0.5 µg/mL (≈ 0.966 µM) | MIC (E.cloacae C4009; [12]): 0.1 µg/mL (≈ 0.193 µM) | MIC (K.pneumoniae ATCC10031; [13]): 0.025 µg/mL (≈ 0.0483 µM) | MIC (E.coli ATCC10536; [14]): 0.025 µg/mL (≈ 0.0483 µM) | MIC (P.aeruginosa ATCC27853; [15]): 50 µg/mL (≈ 96.6 µM) | MIC (E.cloacae C4008; [16]): 0.1 µg/mL (≈ 0.193 µM) | MIC (S.pyogenes ATCC 8668; [17]): 0.1 µg/mL (≈ 0.193 µM) | MIC (MRSA C2208; MRSA C2208): > 100 µg/mL | MIC (E.coli ATCC25922; [18]): 0.05 µg/mL (≈ 0.0966 µM) | MIC (S.aureus C4036; [19]): 1.56 µg/mL (≈ 3.01 µM) | MIC (S.epidermidis ATCC12228; [20]): 3.13 µg/mL (≈ 6.05 µM) | MIC (S.aureus ATCC29213; [21]): 0.78 µg/mL (≈ 1.51 µM) | MIC (E.coli C4002; [22]): 6.25 µg/mL (≈ 12.1 µM)
SMILES: Nc1nc(/C(=N/O)C(=O)N[C@@H]2C(=O)N3C(C(=O)[O-])=C(C[n+]4ccc5[nH]c(=O)[nH]c5c4)CS[C@H]23)ns1 [Ex. 7, 7-β-[(Z)-2-(5-Amino-1,2,4-thiadiazol-3-yl)-2-hydroxyiminoacetamido]-3-[2-(1H, 3H)-oxo-imidazo[4,5-c]pyridiniummethyl]-3-cephem-4-carboxylate]

SMILES: CC(C)(O/N=C(\C(=O)N[C@@H]1C(=O)N2C(C(=O)[O-])=C(C[n+]3ccccc3)CS[C@H]12)c1csc(N)n1)C(=O)O [CAZ, Ceftazidime, reference compound]
half-life [1]: 12.3 min | MIC (S.marcescens ATCC27117; ATCC27117, read-out: Minimum Inhibitory Concentration (MIC)): 0.1 µg/mL (≈ 0.183 µM) | MIC (P.aeruginosa C2027; C2027, read-out: Minimum Inhibitory Concentration (MIC)): 0.78 µg/mL (≈ 1.43 µM) | MIC (S.marcescens C1052; C1052, read-out: Minimum Inhibitory Concentration (MIC)): 0.2 µg/mL (≈ 0.366 µM) | MIC (S.Faecalis ATCC29212): > 100 µg/mL | MIC (S.typhimurium C4045; TYPHIMURIUM): 0.2 µg/mL (≈ 0.366 µM) | MIC (K.pneumoniae C1040; C1040, read-out: Minimum Inhibitory Concentration (MIC)): 0.05 µg/mL (≈ 0.0915 µM) | MIC (S.pyogenes C4003; C4003, read-out: Minimum Inhibitory Concentration (MIC)): 0.2 µg/mL (≈ 0.366 µM) | MIC (P.mirabilis ATCC25933; ATCC25933, read-out: Minimum Inhibitory Concentration (MIC)): 0.05 µg/mL (≈ 0.0915 µM) | MIC (K.oxytoca C4022; C4022, read-out: Minimum Inhibitory Concentration (MIC)): 0.78 µg/mL (≈ 1.43 µM) | MIC (S.aureus Smith): 6.25 µg/mL (≈ 11.4 µM) | MIC (P.aeruginosa C4070; C4070, read-out: Minimum Inhibitory Concentration (MIC)): 1.56 µg/mL (≈ 2.85 µM) | MIC (P.aeruginosa ATCC10145; ATCC10145, read-out: Minimum Inhibitory Concentration (MIC)): 1.56 µg/mL (≈ 2.85 µM) | MIC (P.rettgeri ATCC9919; ATCC9919, read-out: Minimum Inhibitory Concentration (MIC)): 0.025 µg/mL (≈ 0.0457 µM) | MIC (E.cloacae C4009; C4009, read-out: Minimum Inhibitory Concentration (MIC)): 0.05 µg/mL (≈ 0.0915 µM) | MIC (K.pneumoniae ATCC10031; ATCC10031, read-out: Minimum Inhibitory Concentration (MIC)): 0.05 µg/mL (≈ 0.0915 µM) | MIC (E.coli ATCC10536; ATCC10536, read-out: Minimum Inhibitory Concentration (MIC)): 0.05 µg/mL (≈ 0.0915 µM) | MIC (P.aeruginosa ATCC27853; ATCC27853, read-out: Minimum Inhibitory Concentration (MIC)): 3.13 µg/mL (≈ 5.73 µM) | MIC (E.cloacae C4008; C4008, read-out: Minimum Inhibitory Concentration (MIC)): 0.05 µg/mL (≈ 0.0915 µM) | MIC (S.pyogenes ATCC 8668; ATCC8668, read-out: Minimum Inhibitory Concentration (MIC)): 0.1 µg/mL (≈ 0.183 µM) | MIC (MRSA C2208; MRSA): > 100 µg/mL | MIC (E.coli ATCC25922; ATCC25922, read-out: Minimum Inhibitory Concentration (MIC)): 0.2 µg/mL (≈ 0.366 µM) | MIC (S.aureus C4036; C4036, read-out: Minimum Inhibitory Concentration (MIC)): 6.25 µg/mL (≈ 11.4 µM) | MIC (S.epidermidis ATCC12228; ATCC12228, read-out: Minimum Inhibitory Concentration (MIC)): 3.13 µg/mL (≈ 5.73 µM) | MIC (S.aureus ATCC29213; ATCC29213, read-out: Minimum Inhibitory Concentration (MIC)): 6.25 µg/mL (≈ 11.4 µM) | MIC (E.coli C4002; C4002, read-out: Minimum Inhibitory Concentration (MIC)): 0.1 µg/mL (≈ 0.183 µM)

MIC (S.marcescens ATCC27117; [2]): 0.2 µg/mL (≈ 0.348 µM) | MIC (P.aeruginosa C2027; [3]): 6.25 µg/mL (≈ 10.9 µM) | MIC (S.marcescens C1052; [4]): 0.2 µg/mL (≈ 0.348 µM) | MIC (S.Faecalis ATCC29212): > 100 µg/mL | MIC (S.typhimurium C4045; S.typhimurium C4045): 0.2 µg/mL (≈ 0.348 µM) | MIC (K.pneumoniae C1040; [5]): 0.05 µg/mL (≈ 0.087 µM) | MIC (S.pyogenes C4003; [6]): 0.007 µg/mL (≈ 0.0122 µM) | MIC (P.mirabilis ATCC25933; [7]): 0.1 µg/mL (≈ 0.174 µM) | MIC (K.oxytoca C4022; [8]): 12.5 µg/mL (≈ 21.8 µM) | MIC (S.aureus Smith; S.aureus Smith): 3.13 µg/mL (≈ 5.45 µM) | MIC (P.aeruginosa C4070; [9]): > 100 µg/mL | MIC (P.aeruginosa ATCC10145; [10]): 50 µg/mL (≈ 87 µM) | MIC (P.rettgeri ATCC9919; [11]): 0.025 µg/mL (≈ 0.0435 µM) | MIC (E.cloacae C4009; [12]): 0.2 µg/mL (≈ 0.348 µM) | MIC (K.pneumoniae ATCC10031; [13]): 0.05 µg/mL (≈ 0.087 µM) | MIC (E.coli ATCC10536; [14]): 0.05 µg/mL (≈ 0.087 µM) | MIC (P.aeruginosa ATCC27853; [15]): > 100 µg/mL | MIC (E.cloacae C4008; [16]): 0.05 µg/mL (≈ 0.087 µM) | MIC (S.pyogenes ATCC 8668; [17]): 0.013 µg/mL (≈ 0.0226 µM) | MIC (MRSA C2208; MRSA C2208): > 100 µg/mL | MIC (E.coli ATCC25922; [18]): 0.1 µg/mL (≈ 0.174 µM) | MIC (S.aureus C4036; [19]): 3.13 µg/mL (≈ 5.45 µM) | MIC (S.epidermidis ATCC12228; [20]): 1.56 µg/mL (≈ 2.72 µM) | MIC (S.aureus ATCC29213; [21]): 1.56 µg/mL (≈ 2.72 µM) | MIC (E.coli C4002; [22]): 0.1 µg/mL (≈ 0.174 µM)
SMILES: CO/N=C(\C(=O)N[C@@H]1C(=O)N2C(C(=O)[O-])=C(C[n+]3ccc4c(c3)NC(=C[N+](=O)[O-])N4)CS[C@H]12)c1nsc(N)n1 [Ex. 2, 7-β-[(Z)-2-(5-Amino-1,2,4-thiadiazol-3-yl)-2-methoxyiminoacetamido]-3-[2-(1H,3H)-nitromethylen-yl-imidazo[4,5-c]-pyridiniummethyl]-3-cephem-4-carboxylate]
